For 35 compounds, IC50 results are on record in patent US8563565B2, “Pyrazoloquinoline derivatives” (Eisai R&D Management Co., Ltd., priority 2011, dated 2013).

This assay addresses T1, human recombinant PDE9 protein (Homo sapiens, UniProt O76083).
T1 construct: His-tag (inferred from the Ni column purification; a myc His-tag vector is named only for the HEK293 expression check); made in house; host or cells: silkworm (pYNG vector, Katakura Industries)
Description: PDE9 inhibitory activity test (measurement of PDE9 inhibitory action, [3H]-cGMP). The assay is classed as biochemical. Conditions: PDE9 IC50, human recombinant PDE9, 30° C., 10 min. An excerpt: 1) Preparation of a Human Recombinant PDE9 Protein
An hsPDE9A 1cDNA fragment was amplified by being based on a base sequence (Accession No.: AF048837) of the hsPDE9A1 registered on GenBank data base, and by using the following sequences (Hokkaido System Science Co., Ltd.) as a primer and Human hippocampus cDNA library (Clontech Laboratories, Inc.) as a template DNA, and using Pfu50 DNA polymerase (Invitrogen Corp.), and by a polymerase chain reaction (PCR) of the following condition.
The condition of PCR: [96° C., 5 min]×1 cycle, [(96° C., 10 sec), (57° C., 5 sec), (72° C., 2 min)]×30 cycles
The obtained hsPDE9A 1 cDNA fragment was incorporated in a TOPO-TA cloning vector (Invitrogen Corp.), and the base sequence was checked; and thereafter, the resultant was transfected in a pcDNA 3.1/myc His-tag vector (Invitrogen Corp.) to thereby make a human PDE9 expression vector for mammal cells. The human PDE9 expression vector for mammal cells was transfected with transient expression to an HEK293 cell by using a LIPOFETAMINE 2000 Reagent (Gibco). It was confirmed by Western blot method that the PDE9A expressed in the HEK293 cell, and then, the human PDE9A 1cDNA fragment was transfected in a pYNG vector (Katakura Industries Co., Ltd.) to thereby make an expression vector for insect cells. A supernatant of homogenized silk worm in which a large amount of PDE9 was expressed was purified by an equilibrated Ni column using a buffer A (20 mmol/L Tris-HCl, pH: 8.0, 1 mmol/L DTT, 10 mmol/L imidazole). After 1 hour of mixing of the supernatant and the Ni column, cleaning was carried out using a buffer B (20 mmol/L Tris-HCl, pH: 8.0, 1 mmol/L […]), and elution was carried out using a buffer C (20 mmol/L Tris-HCl, pH: 8.0, 1 mmol/L DTT, 100 mmol/L imidazole). An elution fraction was preparatively collected to thereby obtain a PDE9 enzyme solution.
2) Measurement of PDE9 Inhibitory Action
To 100 μL of a buffer D (40 mmol/L Tris-HCl, pH: 7.4, 10 mmol/L MgCl2, 1 mM DTT, 2 μM cGMP) solution containing [^3H]-cGMP ([…]/mL), 10 μL of a compound solution for evaluation (a solution in which a compound was dissolved in DMSO and diluted so that the DMSO concentration became 5%) and 90 μL of a solution prepared by diluting the PDE9 enzyme solution prepared in the above with a buffer E (40 mmol/L Tris-HCl, pH: 7.4, 10 mmol/L MgCl2, 1 mM DTT, 1 mmol/L EGTA) were added under ice cooling. The resultant mixed solution was incubated at 30° C. for 10 min, and thereafter heated for 2 min in boiled water to stop the enzyme reaction of the PDE9. Then, the resultant was returned to room temperature; 50 μL of 5′-Nucleotidase (Biomol GmbH, 10 units/mL) was added thereto; and the resultant was incubated at 30° C. for 10 min to thereby convert [^3H]-5′-GMP formed in the previous reaction to [^3H]-guanosine. 500 μL of an anion exchange resin (Bio-Rad AG1-X2 resin, mesh size: 200-400, H2O:resin=2:1) was added to the resultant reaction liquid, and allowed to stand for 10 min, and thereafter centrifuged (2,000 rpm, 10 min); and a supernatant in which the [^3H]-guanosine was present was transferred to a LumaPlate (PerkinElmer, Inc.), and the radioactivity was measured by a TopCount NXT microplate scintillation and luminescence counter (PerkinElmer, Inc.).
The inhibition percentage of the evaluation compound was calculated using the following expression, taking the radioactivity of a control containing no evaluation compound to be (A), the radioactivity of a blank containing no enzyme to be (B), and the radioactivity of the evaluation compound to be (C). Inhibition percentage=100−{[(C)−(B)]/[(A)−(B)]}×100(%)
The IC50 value for PDE9 of the evaluation compound was determined from inhibition percentage for various concentrations.

T1 sequence (O76083 whole entry): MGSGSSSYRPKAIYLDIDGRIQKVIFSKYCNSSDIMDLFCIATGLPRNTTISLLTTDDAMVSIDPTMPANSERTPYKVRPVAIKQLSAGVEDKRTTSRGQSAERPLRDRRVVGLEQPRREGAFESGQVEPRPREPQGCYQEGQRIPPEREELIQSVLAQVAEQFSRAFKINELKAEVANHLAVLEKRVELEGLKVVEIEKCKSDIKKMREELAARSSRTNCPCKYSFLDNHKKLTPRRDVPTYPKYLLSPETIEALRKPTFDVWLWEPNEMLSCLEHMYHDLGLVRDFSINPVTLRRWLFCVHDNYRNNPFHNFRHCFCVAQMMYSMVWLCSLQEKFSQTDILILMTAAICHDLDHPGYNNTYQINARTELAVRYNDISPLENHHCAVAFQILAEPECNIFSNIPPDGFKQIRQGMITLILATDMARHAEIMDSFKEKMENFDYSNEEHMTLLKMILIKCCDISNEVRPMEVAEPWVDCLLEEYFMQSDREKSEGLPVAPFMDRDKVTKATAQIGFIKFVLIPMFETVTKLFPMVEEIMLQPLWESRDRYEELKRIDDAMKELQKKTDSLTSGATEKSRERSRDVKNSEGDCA

As for `COc1nc(C)cc(C)c1-c1ccc2c(c1)[nH]c(=O)c1cnn(C3CCCOC3)c12` (single isomer, unassigned; (+)) [34 (+), (+)-7-(2-methoxy-4,6-dimethylpyridin-3-yl)-1-(tetrahydro-2H-pyran-3-yl)-1H-pyrazolo[4,3-c]quinolin-4(5H)-one], the IC50 is 3.88 nM. The result for `COc1ncc(C)c(-c2ccc3c(c2)[nH]c(=O)c2cnn(C4CCCOCC4)c23)c1C` (single isomer, unassigned; (+)) [41 (+), (+)-7-(2-methoxy-3,5-dimethylpyridin-4-yl)-1-(oxepan-4-yl)-1H-pyrazolo[4,3-c]quinolin-4(5H)-one] reads 5.91 nM; that for `COc1nc(C)cc(C)c1-c1ccc2c(c1)[nH]c(=O)c1cnn(C3CCCOC3)c12` (single isomer, unassigned; (-)) [34 (−), (−)-7-(2-methoxy-4,6-dimethylpyridin-3-yl)-1-(tetrahydro-2H-pyran-3-yl)-1H-pyrazolo[4,3-c]quinolin-4(5H)-one], 3.36 nM; that for `COc1ncc(C)c(-c2ccc3c(c2)[nH]c(=O)c2cnn(C4CCCOCC4)c23)c1C` (single isomer, unassigned; (-)) [41 (−), (−)-7-(2-methoxy-3,5-dimethylpyridin-4-yl)-1-(oxepan-4-yl)-1H-pyrazolo[4,3-c]quinolin-4(5H)-one], 12.1 nM. For the compound `COc1ncc(C)c(-c2ccc3c(c2)[nH]c(=O)c2cnn([C@@H]4CCOC4)c23)c1C` [25 (+)R], the IC50 is 41 nM. `COc1ncc(C)c(-c2ccc3c(c2)[nH]c(=O)c2cnn([C@H]4CCOC4)c23)c1C` [25 (−)S]: the IC50 is 9.43 nM.

As to `COc1cc(C)c(-c2ccc3c(c2)[nH]c(=O)c2cnn(C4CCOC4)c23)c(CF)n1` (stereo not drawn) [30 (+)], the IC50 was 225 nM. As for `Cc1cccc(C)c1-c1ccc2c(c1)[nH]c(=O)c1cnn(C3CCOCC3)c12` [Example 1, 7-(2,6-dimethylphenyl)-1-(tetrahydro-2H-pyran-4-yl)-1H-pyrazolo[4,3-c]quinolin-4(5H)-one], the IC50 was 24.3 nM. Consider `COCc1cc(C)c(-c2ccc3c(c2)[nH]c(=O)c2cnn(C4CCOCC4)c23)c(C)c1` [Example 7], for which the IC50 came to 9.2 nM. `Cc1cc(F)nc(C)c1-c1ccc2c(c1)[nH]c(=O)c1cnn(C3CCOCC3)c12` [Example 8]: the half-inhibitory concentration (IC50) amounted to 25.2 nM. In the case of `Cc1cc(Cl)c(-c2ccc3c(c2)[nH]c(=O)c2cnn(C4CCOCC4)c23)c(C)n1` [Example 9] it was 21.7 nM; in that of `COc1ncc(Cl)c(C)c1-c1ccc2c(c1)[nH]c(=O)c1cnn(C3CCOCC3)c12` [Example 10], 20.8 nM. For the compound `COc1nc(C)c(Cl)c(C)c1-c1ccc2c(c1)[nH]c(=O)c1cnn(C3CCOCC3)c12` [Example 11], the IC50 was 11.3 nM. On to `Cc1cc(C#N)nc(C)c1-c1ccc2c(c1)[nH]c(=O)c1cnn(C3CCOCC3)c12` [Example 13], for which the IC50 stood at 36.7 nM. Regarding `COc1nc(C)c(-c2ccc3c(c2)[nH]c(=O)c2cnn(C4CCOCC4)c23)c(OC)n1` [Example 14], the IC50 was 21.2 nM. For the compound `Cc1cc(C(F)F)nc(C)c1-c1ccc2c(c1)[nH]c(=O)c1cnn(C3CCOCC3)c12` [Example 16], the IC50 was determined as 6.32 nM. Consider `COc1nc(CF)cc(C)c1-c1ccc2c(c1)[nH]c(=O)c1cnn(C3CCOCC3)c12` [Example 17], for which the half-inhibitory concentration (IC50) worked out at 6.08 nM. The result for `Cc1cc(CF)nc(C)c1-c1ccc2c(c1)[nH]c(=O)c1cnn(C3CCOCC3)c12` [Example 19] reads 13 nM. Take `Cc1cc(C)c(-c2ccc3c(c2)[nH]c(=O)c2cnn(C4CCOCC4)c23)c(CF)n1` [Example 20]: the IC50 stood at 28.9 nM.

For `Cc1cc(C)c(-c2ccc3c(c2)[nH]c(=O)c2cnn(C4CCOCC4)c23)c(C(F)F)n1` [Example 21], the IC50 was found to be 53.9 nM. Regarding `COc1cc(CF)c(-c2ccc3c(c2)[nH]c(=O)c2cnn(C4CCOCC4)c23)c(C)n1` [Example 22], the IC50 worked out at 52.3 nM.

Turning to `CCOc1nccc(C)c1-c1ccc2c(c1)[nH]c(=O)c1cnn(C3CCOCC3)c12` [Example 23, 7-(2-ethoxy-4-methylpyridin-3-yl)-1-(tetrahydro-2H-pyran-4-yl)-1H-pyrazolo[4,3-c]quinolin-4(5H)-one], the IC50 is 9.51 nM. Regarding `Cc1cc(C2CCOCC2)cc(C)c1-c1ccc2c(c1)[nH]c(=O)c1cnn(C3CCOCC3)c12` [Example 40, 7-[2,6-dimethyl-4-(tetrahydro-2H-pyran-4-yl)phenyl]-1-(tetrahydro-2H-pyran-4-yl)-1H-pyrazolo[4,3-c]quinolin-4(5H)-one], the IC50 was 3.21 nM. In the case of `COc1cc(C)c(-c2ccc3c(c2)[nH]c(=O)c2cnn(C4COCCOC4)c23)c(C)c1` [Example 44] it was 12.1 nM.

Consider `COc1nc(C)cc(C)c1-c1ccc2c(c1)[nH]c(=O)c1cnn(C3COCCOC3)c12` [Example 45, 1-(1,4-dioxepan-6-yl)-7-(2-methoxy-4,6-dimethylpyridin-3-yl)-1H-pyrazolo[4,3-c]quinolin-4(5H)-one], for which the IC50 amounted to 3.33 nM. Turning to `COc1cc(C)c(-c2ccc3c(c2)[nH]c(=O)c2cnn(C4COCCOC4)c23)c(C)n1` [Example 46], the IC50 is 18.1 nM. The result for `COc1nccc(C)c1-c1ccc2c(c1)[nH]c(=O)c1cnn(C3COCCOC3)c12` [Example 47] reads 5.67 nM; that for `Cc1cnc(OC(C)C)c(C)c1-c1ccc2c(c1)[nH]c(=O)c1cnn([C@H]3CCOC3)c12` [Example 48, (S)-7-(2-isopropyloxy-3,5-dimethylpyridin-4-yl)-1-(tetrahydrofuran-3-yl)-1H-pyrazolo[4,3-c]quinolin-4(5H)-one], 8.35 nM.

In the case of `Cc1cnc(OC(F)F)c(C)c1-c1ccc2c(c1)[nH]c(=O)c1cnn([C@H]3CCOC3)c12` [Example 49], the IC50 amounted to 12.2 nM.

As to `CCOc1ncc(C)c(-c2ccc3c(c2)[nH]c(=O)c2cnn([C@H]4CCOC4)c23)c1C` [Example 50], the IC50 is 6.51 nM. As to `COc1nc(C)cc(C)c1-c1cc2[nH]c(=O)c3cnn(C4CCOCC4)c3c2cc1F` [Example 52, 8-fluoro-7-(2-methoxy-4,6-dimethylpyridin-3-yl)-1-(tetrahydro-2H-pyran-4-yl)-1H-pyrazolo[4,3-c]quinolin-4(5H)-one], the IC50 is 4.77 nM. As to `CCc1c(OC)ncc(C)c1-c1ccc2c(c1)[nH]c(=O)c1cnn([C@H]3CCOC3)c12` [Example 56, (S)-7-(3-ethyl-2-methoxy-5-methylpyridin-4-yl)-1-(tetrahydrofuran-3-yl)-1H-pyrazolo[4,3-c]quinolin-4(5H)-one], the IC50 came to 10.1 nM. In the case of `COc1ncc(C)c(-c2cc3[nH]c(=O)c4cnn([C@@H]5CCOC5)c4c3cc2F)c1C` [Example 57, (R)-8-fluoro-7-(2-methoxy-3,5-dimethylpyridin-4-yl)-1-(tetrahydrofuran-3-yl)-1H-pyrazolo[4,3-c]quinolin-4(5H)-one] it was 43.9 nM. For `COc1nc(C)cc(C)c1-c1cc2[nH]c(=O)c3cnn([C@@H]4CCOC4)c3c2cc1F` [Example 58], the IC50 was found to be 11.7 nM.

With `COc1cc(C)c(-c2cc3[nH]c(=O)c4cnn([C@@H]5CCOC5)c4c3cc2F)c(C)n1` [Example 59], the IC50 is 71.5 nM.

By IC50 is commonly meant the concentration that gives 50% inhibition.
